Data reported in US20080233132A1, “MULTIPLE SCLEROSIS THERAPY” (priority 2006, published 2008).

How the values were obtained:
γ-secretase [1] = molecular target: T1, γ-secretase (Homo sapiens, UniProt P49768); details: displacement assay; cited from earlier work
CD4+ T cells = assay: cell-culture assay of T cell proliferation and Th1 differentiation; type: cell-based
EAE [2] = details: injected prior to disease onset; Minter et al. 2005; cited from earlier work
T cells = details: Minter et al. 2005; cited from earlier work
EAE animals = assay: LY411575 injected into EAE animals; type: in vivo
Procedure: When LY411575 was injected into EAE animals, the severity of EAE was decreased.

γ-secretase [3] = molecular target: T1, γ-secretase; details: recombinant APP C100 substrate; Takahashi et al. 2003; cited from earlier work
aged rats = details: total dose infused i.v.=1 ug, Fischer et al. 1987; cited from earlier work
EAE [4] = details: Sanna et al. 2006; cited from earlier work
MS patients = details: some, but not all, onsets approximately six months following the onset of therapy; cited from earlier work

C[C@H](NC(=O)Cc1cc(F)cc(F)c1)C(=O)N[C@H](C(=O)OC(C)(C)C)c1ccccc1 [DAPT]
competition for the γ-secretase active site (γ-secretase [1]): compete moderately

C[C@H](NC(=O)[C@@H](O)c1cc(F)cc(F)c1)C(=O)N[C@@H]1C(=O)N(C)c2ccccc2-c2ccccc21 [LY411575]
amount of T cell differentiation of the inflammatory Th1 subset of CD4+ T cells (CD4+ T cells): decreased | effect on T cell proliferation (CD4+ T cells): no observed effect | severity of EAE (EAE [2]): lessened | Th1 differentiation in vitro (T cells): decreased | effect on T cell proliferation (T cells): no effect | severity of EAE (EAE animals): decreased

CSc1ccc(/C=C2/C(C)=C(CC(=O)O)c3cc(F)ccc32)cc1 [sulindac sulfide]
γ-secretase activity (γ-secretase [3]): preferentially inhibits

NGF: nerve growth factor
cholinergic neuron atrophy and spatial memory impairment (aged rats): ameliorate

glatiramer acetate [GA]
progression of EAE (EAE [4]): block progression | clinical relapses (MS patients): modest reduction
